Structures can show the parent of a compound that is named as a salt. Where two headings read alike, the source gives them in different places.
Target: T1, IKK-2 (Homo sapiens, UniProt O14920, S177E/S181E)
T1 construct: His6
T1 sequence (O14920 1-756 S177E/S181E): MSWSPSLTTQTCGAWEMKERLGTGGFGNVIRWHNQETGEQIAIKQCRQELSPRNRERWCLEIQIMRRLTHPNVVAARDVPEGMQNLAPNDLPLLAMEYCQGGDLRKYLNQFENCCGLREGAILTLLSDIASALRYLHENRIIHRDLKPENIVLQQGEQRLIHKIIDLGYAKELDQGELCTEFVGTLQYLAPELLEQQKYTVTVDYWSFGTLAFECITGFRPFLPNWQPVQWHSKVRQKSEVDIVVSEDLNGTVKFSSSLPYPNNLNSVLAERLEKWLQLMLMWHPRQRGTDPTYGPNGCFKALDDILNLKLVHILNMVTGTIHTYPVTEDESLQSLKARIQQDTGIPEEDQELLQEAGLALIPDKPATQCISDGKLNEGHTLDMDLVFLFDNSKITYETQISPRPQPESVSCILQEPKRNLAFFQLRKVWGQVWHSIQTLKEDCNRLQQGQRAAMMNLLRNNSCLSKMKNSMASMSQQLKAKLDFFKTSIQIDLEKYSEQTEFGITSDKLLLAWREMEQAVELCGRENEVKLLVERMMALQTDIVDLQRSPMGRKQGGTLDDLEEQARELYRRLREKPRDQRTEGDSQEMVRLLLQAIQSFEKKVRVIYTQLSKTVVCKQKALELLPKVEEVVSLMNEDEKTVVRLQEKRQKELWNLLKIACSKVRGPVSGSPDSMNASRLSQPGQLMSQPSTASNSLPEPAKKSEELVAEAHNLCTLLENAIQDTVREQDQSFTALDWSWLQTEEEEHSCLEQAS
Test: IKK-2 Enzyme Assay
Type: biochemical
Details: read-out: IC50 value in the IKK-2 Enzyme Assay
Protocol: The mixture is preincubated for 15 minutes at room temperature. […] After 30 minutes the precipitate is harvested onto a filter plate to which 50 μl of scintillation fluid is added and then quantified by a scintillation counter.

[1] = more preferred compounds, 500 nM or less
[2] = preferred compounds, 1 μM or less

## O=C(c1ccc(Nc2nccc(-c3ccc(Cl)cc3)n2)cc1)N1CCNCC1 [Compound 18, 4-{[4-(4-chlorophenyl)pyrimidin-2-yl]amino}benzoic acid piperazine amide hydrochloride]
[1]
  IC50: ≤ 500 nM
[2]
  IC50: ≤ 1000 nM

## O=C(c1ccc(Nc2nccc(-c3ccc(Cl)cc3)n2)cc1)N1CCN(Cc2ccc3c(c2)OCO3)CC1 [Compound 17-128]
[2]
  IC50: ≤ 1000 nM

## NC(=O)c1ccc(Nc2nccc(-c3ccc(S(=O)(=O)c4cccnc4)cc3)n2)cc1 [Compound 3-13]
[2]
  IC50: ≤ 1000 nM

## CC(C)NC(=O)CN1CCN(C(=O)c2ccc(Nc3nccc(-c4ccc(SCCCO)cc4)n3)cc2)CC1 [Compound 17-32]
[1]
  IC50: ≤ 500 nM
[2]
  IC50: ≤ 1000 nM

## O=C(NCCCn1ccnc1)c1ccc(Nc2nccc(-c3ccc(Cl)cc3)n2)cc1 [Compound 17-21]
[2]
  IC50: ≤ 1000 nM

## CCN(Cc1ccncc1)C(=O)c1ccc(Nc2nccc(-c3ccc(Cl)cc3)n2)cc1 [Compound 17-147]
[2]
  IC50: ≤ 1000 nM

## O=C(NCCN1CCOCC1)c1ccc(Nc2nccc(-c3ccc(Cl)cc3)n2)cc1 [Compound 17-142]
[2]
  IC50: ≤ 1000 nM

## CCCNC(=O)c1ccc(Nc2nccc(-c3ccc(Cl)cc3)n2)cc1 [Compound 17-132]
[2]
  IC50: ≤ 1000 nM

## O=C(c1ccc(Nc2nccc(-c3ccc(SCCCO)cc3)n2)cc1)N1CCN(C(=O)c2ccco2)CC1 [Compound 17-34]
[1]
  IC50: ≤ 500 nM
[2]
  IC50: ≤ 1000 nM

## NC(=O)c1ccc(Nc2nccc(-c3ccc(Cl)cc3)n2)cc1 [Compound 1, 4-{[4-(4-chlorophenyl)pyrimidin-2-yl]amino}benzamide]
[2]
  IC50: ≤ 1000 nM

## CN(C)CCN(Cc1ccccc1)C(=O)c1ccc(Nc2nccc(-c3ccc(Cl)cc3)n2)cc1 [Compound 17-150]
[1]
  IC50: ≤ 500 nM
[2]
  IC50: ≤ 1000 nM
